Data on 15 molecules can be found in patent publication US11447489B2, “Dihydropyrimidinylthiazole for the treatment and prophylaxis of hepatitis B virus infection” (priority 2017, dated 2022).

The term IC50 denotes the concentration at which inhibition is half-maximal. A lower IC50 goes with greater potency in that assay.

The subject of the test is HBsAg. The test can be described thus: HepG2.2.15 cells primary screen assay: HBsAg assay (CLIA of secreted HBsAg). The class given is cell-based, HBV. The note with it: Hepatitis B virus. As for the experimental part:
Example 23: HepG2.2.15 Cells Primary Screen Assay
HepG2.2.15 cells (Acs et al. Proc Natl Acad Sci USA, 84, (1987), 4641-4), a constitutively HBV-expressing cell line were cultured in DMEM+Glutamax-I medium (Invitrogen, Carlsbad, Calif., USA), supplemented with 10% fetal bovine serum (Invitrogen) and G418 (Invitrogen) at a final concentration of 200 mg/L and maintained in 5% CO2 at 37° C.
HepG2.2.15 cells were seeded in duplicate into white, 96-well plates at 1.5×10^4 cells/well. The cells were treated with a three-fold serial dilution series of the compounds in DMSO. The final DMSO concentration in all wells was 1% and DMSO was used as no drug control.
The HBsAg chemiluminescence immunoassay (CLIA) kit (Autobio Diagnostics Co., Zhengzhou, China, Catalog number: CL0310-2) was used to measure the levels of secreted HBV antigens semi-quantitatively. For the detection 50 μL/well culture supernatant was used and HBsAg was quantified using HBsAg chemiluminescence immunoassay (CLIA) kit (Autobio Diagnostics Co., Zhengzhou, China, Catalog number: CL0310-2), 50 μL of the supernatant was transferred to the CLIA assay plate and 50 μL of enzyme conjugate reagent was added into each well. The plates were sealed and gently agitated for 1 hour at room temperature. The supernatant-enzyme-mixture was discarded and wells were washed 6 times with 300 μL of PBS. The residual liquid was removed by plating the CLIA plate […] on absorbent tissue paper. 25 μL of substrates A and B were added to each well. Luminance was measured using a luminometer (Mithras LB 940 Multimode Microplate Reader) after 10 minutes incubation. Dose-response curves were generated and the IC50 value was extrapolated by using the E-WorkBook Suite (ID Business Solutions Ltd., Guildford, UK). The IC50 was defined as the compound concentration (or conditioned media log dilution) at which HBsAg secretion was reduced by 50% compared to the no drug control.
The compounds of the present invention were tested for their capacity to inhibit HBsAg as described herein.

In the case of `COC(=O)C1=C(CN2CCN(CCCCCCOc3cc4c(cc3OC)-c3cc(=O)c(C(=O)O)cn3C(C(C)(C)C)C4)CC2)NC(c2nccs2)=N[C@H]1c1ccc(F)cc1Cl` (stereo partly drawn) [Example 1, 6-tert-butyl-9-[6-[4-[[(4R)-4-(2-chloro-4-fluoro-phenyl)-5-methoxycarbonyl-2-thiazol-2-yl-1,4-dihydropyrimidin-6-yl]methyl]piperazin-1-yl]hexoxy]-10-methoxy-2-oxo-6,7-dihydrobenzo[a]quinolizine-3-carboxylic Acid], the 50% inhibitory concentration (IC50) is 41 nM.

Regarding `COC(=O)C1=C(CN2CCOC[C@H]2C(=O)NCCCCCCOc2cc(N3CCc4nc(-c5ncccn5)ncc4C3C)cc(F)c2F)NC(c2nccs2)=N[C@H]1c1ccc(F)cc1Cl` (stereo partly drawn) [Example 18, methyl (4R)-4-(2-chloro-4-fluoro-phenyl)-6-[[(3S)-3-[6-[2,3-difluoro-5-(5-methyl-2-pyrimidin-2-yl-7,8-dihydro-5H-pyrido[4,3-d]pyrimidin-6-yl)phenoxy]hexylcarbamoyl]morpholin-4-yl]methyl]-2-thiazol-2-yl-1,4-dihydropyrimidine-5-carboxylate], inhibition was half-maximal at 912 nM (IC50).

As to `COC(=O)C1=C(CN2CCN3C(=O)N(CC(C)(C)CC(=O)NCCCCCCOc4cc(N5CCc6nc(-c7ncccn7)ncc6C5C)cc(F)c4F)C[C@@H]3C2)NC(c2nccs2)=N[C@H]1c1ccc(F)cc1Cl` (stereo partly drawn) [Example 17, methyl (4R)-6-[[(8aS)-2-[4-[6-[2,3-difluoro-5-[5-methyl-2-pyrimidin-2-yl-7,8-dihydro-5H-pyrido[4,3-d]pyrimidin-6-yl]phenoxy]hexylamino]-2,2-dimethyl-4-oxo-butyl]-3-oxo-5,6,8,8a-tetrahydro-1H-imidazo[1,5-a]pyrazin-7-yl]methyl]-4-(2-chloro-4-fluoro-phenyl)-2-thiazol-2-yl-1,4-dihydropyrimidine-5-carboxylate], inhibition was half-maximal at 1190 nM (IC50).

Take `COC(=O)C1=C(CN2CCOC[C@H]2C(=O)NCCCCCCOc2cc3c(cc2OC)-c2cc(=O)c(C(=O)O)cn2C(C(C)(C)C)C3)NC(c2nccs2)=N[C@H]1c1ccc(F)cc1Cl` (stereo partly drawn) [Example 13, 6-tert-butyl-9-[6-[[(3S)-4-[[(4R)-4-(2-chloro-4-fluoro-phenyl)-5-methoxycarbonyl-2-thiazol-2-yl-1,4-dihydropyrimidin-6-yl]methyl]morpholine-3-carbonyl]amino]hexoxy]-10-methoxy-2-oxo-6,7-dihydrobenzo[a]quinolizine-3-carboxylic Acid]: the IC50 came to 85 nM.

In the case of `COC(=O)C1=C(CN2CCN(CC[C@@H](NCCCCCCOc3cc(N4CCc5nc(-c6ncccn6)ncc5C4C)cc(F)c3F)C(=O)O)CC2)NC(c2nccs2)=N[C@H]1c1ccc(F)cc1Cl` (stereo partly drawn) [Example 21, (2R)-4-[4-[[(4R)-4-(2-chloro-4-fluoro-phenyl)-5-methoxycarbonyl-2-thiazol-2-yl-1,4-dihydropyrimidin-6-yl]methyl]piperazin-1-yl]-2-[6-[2,3-difluoro-5-(5-methyl-2-pyrimidin-2-yl-7,8-dihydro-5H-pyrido[4,3-d]pyrimidin-6-yl)phenoxy]hexylamino]butanoic Acid], the IC50 is 582 nM.

The molecule `COC(=O)C1=C(CN2CCN3C(=O)N(CC(C)(C)CC(=O)NCCCCCCOc4cc5c(cc4OC)-c4cc(=O)c(C(=O)O)cn4C(C(C)(C)C)C5)C[C@@H]3C2)NC(c2nccs2)=N[C@H]1c1ccc(F)cc1Cl` (stereo partly drawn) [Example 16, 9-[6-[[4-[(8aS)-7-[[(4R)-4-(2-chloro-4-fluoro-phenyl)-5-methoxycarbonyl-2-thiazol-2-yl-1,4-dihydropyrimidin-6-yl]methyl]-3-oxo-5,6,8,8a-tetrahydro-1H-imidazo[1,5-a]pyrazin-2-yl]-3,3-dimethyl-butanoyl]amino]hexoxy]-6-tert-butyl-10-methoxy-2-oxo-6,7-dihydrobenzo[a]quinolizine-3-carboxylic Acid] displayed an IC50 of 107 nM. Against the preceding molecule, the IC50 is about 5.4-fold lower.

`COC(=O)C1=C(CN(C)CCCCCCOc2cc3c(cc2OC)-c2cc(=O)c(C(=O)O)cn2C(C(C)(C)C)C3)NC(c2nccs2)=N[C@H]1c1ccc(F)cc1Cl` (stereo partly drawn) [Example 9, 6-tert-butyl-9-[6-[[(4R)-4-(2-chloro-4-fluoro-phenyl)-5-methoxycarbonyl-2-thiazol-2-yl-1,4-dihydropyrimidin-6-yl]methyl-methyl-amino]hexoxy]-10-methoxy-2-oxo-6,7-dihydrobenzo[a]quinolizine-3-carboxylic Acid] yielded an IC50 of 113 nM.

Take `COC(=O)C1=C(CN2CCN3C(=O)N(CCCCCCOc4cc5c(cc4OC)-c4cc(=O)c(C(=O)O)cn4C(C(C)(C)C)C5)CC3C2)NC(c2nccs2)=N[C@H]1c1ccc(F)cc1Cl` (stereo partly drawn) [Example 8, 6-tert-butyl-9-[6-[7-[[(4R)-4-(2-chloro-4-fluoro-phenyl)-5-methoxycarbonyl-2-thiazol-2-yl-1,4-dihydropyrimidin-6-yl]methyl]-3-oxo-5,6,8,8a-tetrahydro-1H-imidazo[1,5-a]pyrazin-2-yl]hexoxy]-10-methoxy-2-oxo-6,7-dihydrobenzo[a]quinolizine-3-carboxylic Acid]: the IC50 was found to be 48 nM. Compared with the last molecule, the IC50 is about 2.4-fold lower.

Regarding `COC(=O)C1=C(CN2CCN(CCCCOc3cc4c(cc3OC)-c3cc(=O)c(C(=O)O)cn3C(C(C)(C)C)C4)CC2)NC(c2nccs2)=N[C@H]1c1ccc(F)cc1Cl` (stereo partly drawn) [Example 3, 6-tert-butyl-9-[4-[4-[[(4R)-4-(2-chloro-4-fluoro-phenyl)-5-methoxycarbonyl-2-thiazol-2-yl-1,4-dihydropyrimidin-6-yl]methyl]piperazin-1-yl]butoxy]-10-methoxy-2-oxo-6,7-dihydrobenzo[a]quinolizine-3-carboxylic Acid], half-maximal inhibition (IC50) was put at 45 nM.

Take `COC(=O)C1=C(CN2CCN(CCC(CCCOc3cc4c(cc3OC)-c3cc(=O)c(C(=O)O)cn3C(C(C)(C)C)C4)C(=O)O)CC2)NC(c2nccs2)=N[C@H]1c1ccc(F)cc1Cl` (stereo partly drawn) [Example 12, 6-tert-butyl-9-[4-carboxy-6-[4-[[(4R)-4-(2-chloro-4-fluoro-phenyl)-5-methoxycarbonyl-2-thiazol-2-yl-1,4-dihydropyrimidin-6-yl]methyl]piperazin-1-yl]hexoxy]-10-methoxy-2-oxo-6,7-dihydrobenzo[a]quinolizine-3-carboxylic Acid]: the half-maximal inhibitory concentration (IC50) worked out at 740 nM.

`COC(=O)C1=C(CN2CCN(CCCOc3cc4c(cc3OC)-c3cc(=O)c(C(=O)O)cn3C(C(C)(C)C)C4)CC2)NC(c2nccs2)=N[C@H]1c1ccc(F)cc1Cl` (stereo partly drawn) [Example 4, 6-tert-butyl-9-[3-[4-[[(4R)-4-(2-chloro-4-fluoro-phenyl)-5-methoxycarbonyl-2-thiazol-2-yl-1,4-dihydropyrimidin-6-yl]methyl]piperazin-1-yl]propoxy]-10-methoxy-2-oxo-6,7-dihydrobenzo[a]quinolizine-3-carboxylic Acid] had an IC50 of 182 nM.

Molecule `COC(=O)C1=C(CN2CCOC[C@H]2CN(C)CCCCCCOc2cc(N3CCc4nc(-c5ncccn5)ncc4C3C)cc(F)c2F)NC(c2nccs2)=N[C@H]1c1ccc(F)cc1Cl` (stereo partly drawn) [Example 19, methyl (4R)-4-(2-chloro-4-fluoro-phenyl)-6-[[(3R)-3-[[6-[2,3-difluoro-5-(5-methyl-2-pyrimidin-2-yl-7,8-dihydro-5H-pyrido[4,3-d]pyrimidin-6-yl)phenoxy]hexyl-methyl-amino]methyl]morpholin-4-yl]methyl]-2-thiazol-2-yl-1,4-dihydropyrimidine-5-carboxylate] returned a half-maximal inhibitory concentration (IC50) of 724 nM. This IC50 lies about 4-fold higher than the previous one.

The molecule `COC(=O)C1=C(CN2CCN(CCCCCCOc3cc4c(cc3OC)-c3cc(=O)c(C(=O)O)cn3C(C(C)(C)C)C4)C(C(=O)O)C2)NC(c2nccs2)=N[C@H]1c1ccc(F)cc1Cl` (stereo partly drawn) [Example 7, 6-tert-butyl-9-[6-[2-carboxy-4-[[(4R)-4-(2-chloro-4-fluoro-phenyl)-5-methoxycarbonyl-2-thiazol-2-yl-1,4-dihydropyrimidin-6-yl]methyl]piperazin-1-yl]hexoxy]-10-methoxy-2-oxo-6,7-dihydrobenzo[a]quinolizine-3-carboxylic Acid] gave an IC50 of 190 nM.

`COC(=O)C1=C(CN2CCN(CCCCCOc3cc4c(cc3OC)-c3cc(=O)c(C(=O)O)cn3C(C(C)(C)C)C4)CC2)NC(c2nccs2)=N[C@H]1c1ccc(F)cc1Cl` (stereo partly drawn) [Example 2, 6-tert-butyl-9-[5-[4-[[(4R)-4-(2-chloro-4-fluoro-phenyl)-5-methoxycarbonyl-2-thiazol-2-yl-1,4-dihydropyrimidin-6-yl]methyl]piperazin-1-yl]pentoxy]-10-methoxy-2-oxo-6,7-dihydrobenzo[a]quinolizine-3-carboxylic Acid]: the concentration for half-maximal inhibition (IC50) turned out to be 88 nM.

The molecule `COC(=O)C1=C(CN2CCN(CCCOc3cc4c(cc3OC)-c3cc(=O)c(C(=O)O)cn3C(C(C)(C)C)C4)C(C(=O)O)C2)NC(c2nccs2)=N[C@H]1c1ccc(F)cc1Cl` (stereo partly drawn) [Example 5, 6-tert-butyl-9-[3-[2-carboxy-4-[[(4R)-4-(2-chloro-4-fluoro-phenyl)-5-methoxycarbonyl-2-thiazol-2-yl-1,4-dihydropyrimidin-6-yl]methyl]piperazin-1-yl]propoxy]-10-methoxy-2-oxo-6,7-dihydrobenzo[a]quinolizine-3-carboxylic Acid] yielded an IC50 of 3480 nM.
